Molecular target: T1, purified human HDAC6 (Homo sapiens, UniProt Q9UBN7)
T1 construct: purchased BPS Bioscience 5006
T1 sequence (Q9UBN7 1-1215): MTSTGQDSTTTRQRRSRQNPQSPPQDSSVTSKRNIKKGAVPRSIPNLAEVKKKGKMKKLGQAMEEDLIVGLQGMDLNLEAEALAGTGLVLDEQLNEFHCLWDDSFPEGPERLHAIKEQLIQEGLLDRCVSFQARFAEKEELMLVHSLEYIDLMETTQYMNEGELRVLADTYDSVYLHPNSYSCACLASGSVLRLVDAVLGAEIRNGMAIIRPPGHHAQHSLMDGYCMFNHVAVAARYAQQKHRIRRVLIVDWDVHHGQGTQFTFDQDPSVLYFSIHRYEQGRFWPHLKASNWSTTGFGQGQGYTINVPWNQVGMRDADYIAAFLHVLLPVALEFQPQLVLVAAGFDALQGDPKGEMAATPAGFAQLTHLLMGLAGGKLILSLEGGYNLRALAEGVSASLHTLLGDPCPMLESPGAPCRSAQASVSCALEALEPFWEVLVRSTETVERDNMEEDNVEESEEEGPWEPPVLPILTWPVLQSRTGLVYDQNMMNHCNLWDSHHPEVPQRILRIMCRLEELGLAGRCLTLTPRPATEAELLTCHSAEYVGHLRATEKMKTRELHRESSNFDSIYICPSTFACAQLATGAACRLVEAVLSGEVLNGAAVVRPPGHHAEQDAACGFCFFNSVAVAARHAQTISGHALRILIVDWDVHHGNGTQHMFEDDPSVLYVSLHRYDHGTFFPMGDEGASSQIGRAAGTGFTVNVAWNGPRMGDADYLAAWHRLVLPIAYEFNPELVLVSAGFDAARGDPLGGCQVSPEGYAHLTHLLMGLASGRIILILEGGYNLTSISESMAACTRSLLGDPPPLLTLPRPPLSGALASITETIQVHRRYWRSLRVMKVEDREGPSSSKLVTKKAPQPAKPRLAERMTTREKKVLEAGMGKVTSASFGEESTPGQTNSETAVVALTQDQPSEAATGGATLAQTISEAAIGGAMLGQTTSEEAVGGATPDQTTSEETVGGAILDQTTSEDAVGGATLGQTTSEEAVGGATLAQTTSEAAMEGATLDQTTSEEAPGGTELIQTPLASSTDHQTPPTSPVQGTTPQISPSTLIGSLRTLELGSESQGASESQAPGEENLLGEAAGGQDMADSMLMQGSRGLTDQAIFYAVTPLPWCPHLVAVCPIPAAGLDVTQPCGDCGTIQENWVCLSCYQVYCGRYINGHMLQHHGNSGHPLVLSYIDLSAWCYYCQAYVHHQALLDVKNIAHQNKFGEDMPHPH
Assay: HDAC6 Enzyme Assay
Format: biochemical
Settings: substrate Ac-Arg-Gly-Lys(Ac)-AMC peptide, 1 hour at 30° C.
Description: To measure the inhibition of HDAC6 activity, purified human HDAC6 (BPS Bioscience; Cat. No. 5006) is incubated with substrate Ac-Arg-Gly-Lys(Ac)-AMC peptide (Bachem Biosciences; Cat. No. I-1925) for 1 hour at 30° C. in the presence of test compounds or vehicle DMSO control. The reaction is stopped with the HDAC inhibitor trichostatin A (Sigma; Cat. No. T8552) and the amount of Arg-Gly-Lys-AMC generated is quantitated by digestion with trypsin (Sigma; Cat. No. T1426) and subsequent measurement of the amount of AMC released using a fluorescent plate reader (Pherastar; BMG Technologies) set at Ex 340 nm and Em 460 nm. Concentration response curves are generated by calculating the fluorescence increase in test compound-treated samples relative to DMSO-treated controls, and enzyme inhibition (IC50) values are determined from those curves.

Row | IC50 | SMILES
1 | 100 to 500 nM | COc1ccc(C(=O)N[C@@H](C)c2ncc(C(=O)NO)s2)cc1 [Compound I-175, N-hydroxy-2-{(1S)-1-[(4-methoxybenzoyl)amino]ethyl}-1,3-thiazole-5-carboxamide]
2 | 100 to 500 nM | CC(NS(=O)(=O)c1cn(C)cn1)c1ccc(C(=O)NO)s1 (stereo not shown) [Compound I-33, N-hydroxy-5-(1-{[(1-methyl-1H-imidazol-4-yl)sulfonyl]amino}ethyl)thiophene-2-carboxamide]
3 | 100 to 500 nM | CC(NC(=O)c1cccn1C)c1ncc(C(=O)NO)s1 (stereo not shown) [Compound I-52, N-hydroxy-2-(1-{[(1-methyl-1H-pyrrol-2-yl)carbonyl]amino}ethyl)-1,3-thiazole-5-carboxamide]
4 | < 100 nM | CC(NC(=O)Nc1ccc(OC(F)(F)F)cc1)c1ccc(C(=O)NO)s1 (stereo not shown) [Compound I-22, N-hydroxy-5-{1-[({[4-(trifluoromethoxy)phenyl]amino}carbonyl)amino]ethyl}thiophene-2-carboxamide]
5 | < 100 nM | CC(NC(=O)c1cc2ccccc2s1)c1ncc(C(=O)NO)s1 (stereo not shown) [Compound I-54, 2-{1-[(1-benzothien-2-ylcarbonyl)amino]ethyl}-N-hydroxy-1,3-thiazole-5-carboxamide]
6 | < 100 nM | C[C@@H](NC(=O)c1cccn1C)c1ccc(C(=O)NO)s1 [Compound I-29, N-((1R)-1-{5-[(hydroxyamino)carbonyl]-2-thienyl}ethyl)-1-methyl-1H-pyrrole-2-carboxamide]
7 | < 100 nM | C[C@@H](NC(=O)c1cc2ccccc2o1)c1ccc(C(=O)NO)s1 [Compound I-39, N-((1R)-1-{5-[(hydroxyamino)carbonyl]-2-thienyl}ethyl)-1-benzofuran-2-carboxamide]
8 | < 100 nM | CC(NC(=O)NCc1ccccc1)c1ccc(C(=O)NO)s1 (stereo not shown) [Compound I-18, 5-(1-{[(benzylamino)carbonyl]amino}ethyl)-N-hydroxythiophene-2-carboxamide]
9 | 100 to 500 nM | CC(NC(=O)Nc1ccccc1-c1ccccc1)c1ccc(C(=O)NO)s1 (stereo not shown) [Compound I-27, 5-(1-{[(biphenyl-2-ylamino)carbonyl]amino}ethyl)-N-hydroxythiophene-2-carboxamide]
10 | < 100 nM | Cc1nc(-c2ccccn2)sc1C(=O)N[C@H](C)c1ncc(C(=O)NO)s1 [Compound I-167, N-((1R)-1-{5-[(hydroxyamino)carbonyl]-1,3-thiazol-2-yl}ethyl)-4-methyl-2-pyridin-2-yl-1,3-thiazole-5-carboxamide]
11 | 100 to 500 nM | C[C@H](NC(=O)c1cccn1C)c1ncc(C(=O)NO)s1 [Compound I-160, N-hydroxy-2-((1S)-1-{[(1-methyl-1H-pyrrol-2-yl)carbonyl]amino}ethyl)-1,3-thiazole-5-carboxamide]
12 | < 100 nM | CC(NC(=O)Nc1ccc(OC(F)F)cc1)c1ccc(C(=O)NO)s1 (stereo not shown) [Compound I-37, 5-{1-[({[4-(difluoromethoxy)phenyl]amino}carbonyl)amino]ethyl}-N-hydroxythiophene-2-carboxamide]
13 | 100 to 500 nM | Cc1ccccc1S(=O)(=O)NC(C)c1ccc(C(=O)NO)s1 (stereo not shown) [Compound I-35, N-hydroxy-5-(1-{[(2-methylphenyl)sulfonyl]amino}ethyl)thiophene-2-carboxamide]
14 | < 100 nM | CC(NC(=O)Nc1ccc(C(F)(F)F)cc1)c1ccc(C(=O)NO)s1 (stereo not shown) [Compound I-45, N-hydroxy-5-{1-[({[4-(trifluoromethyl)phenyl]amino}carbonyl)amino]ethyl}thiophene-2-carboxamide]
15 | < 100 nM | Cc1ccc(NC(=O)NC(C)c2ccc(C(=O)NO)s2)cc1C (stereo not shown) [Compound I-38, 5-[1-({[(3,4-dimethylphenyl)amino]carbonyl}amino)ethyl]-N-hydroxythiophene-2-carboxamide]
16 | < 100 nM | C[C@H](NC(=O)c1nc2ccccc2n1C)c1ncc(C(=O)NO)s1 [Compound I-173, N-((1S)-1-{5-[(hydroxyamino)carbonyl]-1,3-thiazol-2-yl}ethyl)-1-methyl-1H-benzimidazole-2-carboxamide]

Row | IC50 | SMILES
17 | < 100 nM | C[C@@H](NC(=O)c1cc2ccccc2o1)c1ncc(C(=O)NO)s1 [Compound I-165, 2-{(1R)-1-[(1-benzofuran-2-ylcarbonyl)amino]ethyl}-N-hydroxy-1,3-thiazole-5-carboxamide]
18 | < 100 nM | CC(NC(=O)c1cc2ccccc2n1C)c1ncc(C(=O)NO)s1 (stereo not shown) [Compound I-51, N-(1-{5-[(hydroxyamino)carbonyl]-1,3-thiazol-2-yl}ethyl)-1-methyl-1H-indole-2-carboxamide]
19 | < 100 nM | Cc1ccc(NC(=O)NC(C)c2ccc(C(=O)NO)s2)c(C)c1 (stereo not shown) [Compound I-13, 5-[1-({[(2,4-dimethylphenyl)amino]carbonyl}amino)ethyl]-N-hydroxythiophene-2-carboxamide]
20 | < 100 nM | CC(NC(=O)Nc1ccc(Oc2ccccc2)cc1)c1ccc(C(=O)NO)s1 (stereo not shown) [Compound I-14, N-hydroxy-5-[1-({[(4-phenoxyphenyl)amino]carbonyl}amino)ethyl]thiophene-2-carboxamide]
21 | > 500 nM | C[C@@H](NC(=O)c1ccc(-c2ccccc2)cc1)c1cc(C(=O)NO)on1 [Compound I-158, 3-{(1R)-1-[(biphenyl-4-ylcarbonyl)amino]ethyl}-N-hydroxyisoxazole-5-carboxamide]
22 | > 500 nM | C[C@@H](NC(=O)C(C)(C)C)c1ncc(C(=O)NO)s1 [Compound I-166, 2-{(1R)-1-[(2,2-dimethylpropanoyl)amino]ethyl}-N-hydroxy-1,3-thiazole-5-carboxamide]
23 | 100 to 500 nM | COc1ccc(C(=O)N[C@H](C)c2ncc(C(=O)NO)s2)cc1 [Compound I-169, N-hydroxy-2-{(1R)-1-[(4-methoxybenzoyl)amino]ethyl}-1,3-thiazole-5-carboxamide]
24 | 100 to 500 nM | CC(NS(=O)(=O)c1ccccc1F)c1ccc(C(=O)NO)s1 (stereo not shown) [Compound I-47, 5-(1-{[(2-fluorophenyl)sulfonyl]amino}ethyl)-N-hydroxythiophene-2-carboxamide]
25 | 100 to 500 nM | CC(NC(=O)NC(C)c1ccc(C(=O)NO)s1)c1ccccc1 (stereo not shown) [Compound I-28, N-hydroxy-5-[1-({[(1-phenylethyl)amino]carbonyl}amino)ethyl]thiophene-2-carboxamide]
26 | > 500 nM | C[C@@H](NC(=O)C1(C)CCCCC1)c1cc(C(=O)NO)on1 [Compound I-157, N-hydroxy-3-((1R)-1-{[(1-methylcyclohexyl)carbonyl]amino}ethyl)isoxazole-5-carboxamide]
27 | > 500 nM | C[C@@H](NC(=O)C1(C)CCCCC1)c1ccc(C(=O)NO)s1 [Compound I-43, N-hydroxy-5-((1R)-1-{[(1-methylcyclohexyl)carbonyl]amino}ethyl)thiophene-2-carboxamide]
28 | < 100 nM | Cc1c(C(=O)N[C@H](C)c2ccc(C(=O)NO)s2)sc2ccccc12 [Compound I-31, N-((1R)-1-{5-[(hydroxyamino)carbonyl]-2-thienyl}ethyl)-3-methyl-1-benzothiophene-2-carboxamide]
29 | < 100 nM | C[C@@H](NC(=O)c1cc2ccccc2n1C)c1ccc(C(=O)NO)s1 [Compound I-5, N-((1R)-1-{5-[(hydroxyamino)carbonyl]-2-thienyl}ethyl)-1-methyl-1H-indole-2-carboxamide]
30 | 100 to 500 nM | Cc1noc(-c2ccccc2)c1NC(=O)NC(C)c1ccc(C(=O)NO)s1 (stereo not shown) [Compound I-41, N-hydroxy-5-[1-({[(3-methyl-5-phenylisoxazol-4-yl)amino]carbonyl}amino)ethyl]thiophene-2-carboxamide]
31 | < 100 nM | Cc1ccccc1NC(=O)NC(C)c1ccc(C(=O)NO)s1 (stereo not shown) [Compound I-40, N-hydroxy-5-[1-({[(2-methylphenyl)amino]carbonyl}amino)ethyl]thiophene-2-carboxamide]
